Reference: ChEMBL document CHEMBL4304811, “Development of a Water-Soluble Indolylmaleimide Derivative IM-93 Showing Dual Inhibition of Ferroptosis and NETosis” (ACS Med Chem Lett, 2019)

Tests used:
[1] = tested on: Epidermal growth factor receptor (Homo sapiens), P00533 [UNDEFINED MUTATION]; assay: Binding affinity to human partial length EGFR E746-A750del mutant expressed in bacterial expression system assessed as residual binding level at 10 uM by Kinomescan method relative to control
[2] = molecular target: Mast/stem cell growth factor receptor Kit (Homo sapiens) (UniProt P10721); assay: Binding affinity to wild-type human partial length KIT (I571 to D952 residues) expressed in bacterial expression system assessed as residual binding level at 10 uM by Kinomescan method relative to control
[3] = molecular target: STE20/SPS1-related proline-alanine-rich protein kinase (Homo sapiens) (UniProt Q9UEW8); assay: Binding affinity to wild-type human partial length STK39 (P43 to I357 residues) expressed in mammalian expression system assessed as residual binding level at 10 uM by Kinomescan method relative to control
[4] = molecular target: Mitogen-activated protein kinase 8 (Homo sapiens) (UniProt P45983); assay: Binding affinity to wild-type human full length JNK1 (M1 to Q384 residues) expressed in mammalian expression system assessed as residual binding level at 10 uM by Kinomescan method relative to control
[5] = molecular target: Mitogen-activated protein kinase kinase kinase 14 (Homo sapiens) (UniProt Q99558); assay: Binding affinity to wild-type human partial length NIK (L318 to P947 residues) expressed in mammalian expression system assessed as residual binding level at 10 uM by Kinomescan method relative to control
[6] = molecular target: cGMP-dependent protein kinase 2 (Homo sapiens) (UniProt Q13237); assay: Binding affinity to wild-type human partial length PRKG2 (S422 to F762 residues) expressed in mammalian expression system assessed as residual binding level at 10 uM by Kinomescan method relative to control
[7] = molecular target: Serine/threonine-protein kinase SBK1 (Homo sapiens) (UniProt Q52WX2); assay: Binding affinity to wild-type human partial length SBK1 (P23 to P348 residues) expressed in mammalian expression system assessed as residual binding level at 10 uM by Kinomescan method relative to control
[8] = molecular target: Vascular endothelial growth factor receptor 3 (Homo sapiens) (UniProt P35916); assay: Binding affinity to wild-type human partial length FLT4 (E821 to E1196 residues) expressed in bacterial expression system assessed as residual binding level at 10 uM by Kinomescan method relative to control
[9] = molecular target: Receptor-type tyrosine-protein kinase FLT3 (Homo sapiens) (UniProt P36888); assay: Binding affinity to wild-type human partial length FLT3 (V592 to Y969 residues) expressed in bacterial expression system assessed as residual binding level at 10 uM by Kinomescan method relative to control
[10] = tested on: Epidermal growth factor receptor (Homo sapiens), P00533 [L858R]; assay: Binding affinity to human partial length EGFR L858R mutant (R669 to V1011 residues) expressed in bacterial expression system assessed as residual binding level at 10 uM by Kinomescan method relative to control
[11] = molecular target: Cyclin-dependent kinase 16 (Homo sapiens) (UniProt Q00536); assay: Binding affinity to wild-type human partial length PCTK1 (G160 to A474 residues) expressed in mammalian expression system assessed as residual binding level at 10 uM by Kinomescan method relative to control
[12] = tested on: Tyrosine-protein kinase ABL1 (Homo sapiens), P00519 [F317I]; assay: Binding affinity to human non-phosphorylated ABL1 F317I mutant (S229 to K512 residues) expressed in mammalian expression system assessed as residual binding level at 10 uM by Kinomescan method relative to control
[13] = molecular target: cAMP-dependent protein kinase catalytic subunit alpha (Homo sapiens) (UniProt P17612); assay: Binding affinity to wild-type human partial length PKAC-alpha (G10 to F351 residues) expressed in bacterial expression system assessed as residual binding level at 10 uM by Kinomescan method relative to control
[14] = molecular target: Cyclin-dependent kinase-like 3 (Homo sapiens) (UniProt Q8IVW4); assay: Binding affinity to wild-type human partial length CDKL3 (M1 to D327 residues) expressed in bacterial expression system assessed as residual binding level at 10 uM by Kinomescan method relative to control
[15] = molecular target: Cyclin-dependent kinase 15 (Homo sapiens) (UniProt Q96Q40); assay: Binding affinity to wild-type human full length PFTAIRE2 (M1 to W384 residues) expressed in bacterial expression system assessed as residual binding level at 10 uM by Kinomescan method relative to control
[16] = molecular target: Epithelial discoidin domain-containing receptor 1 (Homo sapiens) (UniProt Q08345); assay: Binding affinity to wild-type human partial length DDR1 (R565 to V876 residues) expressed in bacterial expression system assessed as residual binding level at 10 uM by Kinomescan method relative to control
[17] = molecular target: Focal adhesion kinase 1 (Homo sapiens) (UniProt Q05397); assay: Binding affinity to wild-type human partial length FAK (D402 to R696 residues) expressed in bacterial expression system assessed as residual binding level at 10 uM by Kinomescan method relative to control
[18] = molecular target: Calcium/calmodulin-dependent protein kinase kinase 2 (Homo sapiens) (UniProt Q96RR4); assay: Binding affinity to wild-type human partial length CAMKK2 (D65 to V471 residues) expressed in bacterial expression system assessed as residual binding level at 10 uM by Kinomescan method relative to control
[19] = molecular target: CDK4/Cyclin D3 (Homo sapiens) (UniProt P11802+P30281); assay: Binding affinity to wild-type human full length CDK4/cyclinD3 (M1 to E303 residues) expressed in mammalian expression system assessed as residual binding level at 10 uM by Kinomescan method relative to control
[20] = molecular target: Membrane-associated tyrosine- and threonine-specific cdc2-inhibitory kinase (Homo sapiens) (UniProt Q99640); assay: Binding affinity to wild-type human partial length PKMYT1 (A88 to G366 residues) expressed in bacterial expression system assessed as residual binding level at 10 uM by Kinomescan method relative to control
[21] = molecular target: MAP kinase-interacting serine/threonine-protein kinase 1 (Homo sapiens) (UniProt Q9BUB5); assay: Binding affinity to wild-type human full length MKNK1 (M1 to L424 residues) expressed in mammalian expression system assessed as residual binding level at 10 uM by Kinomescan method relative to control
[22] = molecular target: Serine/threonine-protein kinase DCLK2 (Homo sapiens) (UniProt Q8N568); assay: Binding affinity to wild-type human partial length DCAMKL2 (K273 to V664 residues) expressed in bacterial expression system assessed as residual binding level at 10 uM by Kinomescan method relative to control
[23] = molecular target: Serine/threonine-protein kinase pim-3 (Homo sapiens) (UniProt Q86V86); assay: Binding affinity to wild-type human partial length PIM3 (G16 to A317 residues) expressed in bacterial expression system assessed as residual binding level at 10 uM by Kinomescan method relative to control
[24] = molecular target: Atypical kinase COQ8B, mitochondrial (Homo sapiens) (UniProt Q96D53); assay: Binding affinity to wild-type human full length ADCK4 (M1 to S544 residues) expressed in bacterial expression system assessed as residual binding level at 10 uM by Kinomescan method relative to control

Sequence of Calcium/calmodulin-dependent protein kinase kinase 2 (Homo sapiens) (Q96RR4 2-588 limits assumed): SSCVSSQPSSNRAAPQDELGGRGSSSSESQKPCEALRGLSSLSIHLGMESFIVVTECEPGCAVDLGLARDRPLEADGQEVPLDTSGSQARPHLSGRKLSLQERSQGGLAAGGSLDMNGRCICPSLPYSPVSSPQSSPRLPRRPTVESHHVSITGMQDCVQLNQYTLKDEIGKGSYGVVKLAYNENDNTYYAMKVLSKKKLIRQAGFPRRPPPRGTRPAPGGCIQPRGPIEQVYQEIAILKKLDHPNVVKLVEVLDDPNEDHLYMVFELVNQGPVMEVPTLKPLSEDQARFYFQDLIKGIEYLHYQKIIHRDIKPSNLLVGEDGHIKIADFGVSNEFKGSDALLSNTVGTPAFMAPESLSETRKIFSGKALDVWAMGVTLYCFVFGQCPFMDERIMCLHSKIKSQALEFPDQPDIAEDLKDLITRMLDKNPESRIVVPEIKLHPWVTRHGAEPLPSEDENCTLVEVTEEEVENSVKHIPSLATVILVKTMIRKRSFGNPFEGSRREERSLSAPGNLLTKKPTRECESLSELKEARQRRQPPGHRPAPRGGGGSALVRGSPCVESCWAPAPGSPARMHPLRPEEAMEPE
Sequence of Serine/threonine-protein kinase SBK1 (Homo sapiens) (Q52WX2 whole entry, the tested form may be a part): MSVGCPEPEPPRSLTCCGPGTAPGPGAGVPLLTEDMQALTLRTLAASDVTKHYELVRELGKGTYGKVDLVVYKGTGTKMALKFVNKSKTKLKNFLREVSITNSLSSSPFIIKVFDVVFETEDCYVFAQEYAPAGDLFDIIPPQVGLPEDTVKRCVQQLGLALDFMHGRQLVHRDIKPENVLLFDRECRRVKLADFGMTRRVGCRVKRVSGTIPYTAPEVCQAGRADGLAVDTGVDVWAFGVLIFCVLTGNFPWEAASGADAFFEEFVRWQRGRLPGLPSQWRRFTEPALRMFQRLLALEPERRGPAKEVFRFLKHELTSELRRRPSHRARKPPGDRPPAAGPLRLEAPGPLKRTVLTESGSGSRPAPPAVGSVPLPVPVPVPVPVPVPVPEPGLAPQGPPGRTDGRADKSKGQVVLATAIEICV
Sequence of Mast/stem cell growth factor receptor Kit (Homo sapiens) (P10721 whole entry, the tested form may be a part): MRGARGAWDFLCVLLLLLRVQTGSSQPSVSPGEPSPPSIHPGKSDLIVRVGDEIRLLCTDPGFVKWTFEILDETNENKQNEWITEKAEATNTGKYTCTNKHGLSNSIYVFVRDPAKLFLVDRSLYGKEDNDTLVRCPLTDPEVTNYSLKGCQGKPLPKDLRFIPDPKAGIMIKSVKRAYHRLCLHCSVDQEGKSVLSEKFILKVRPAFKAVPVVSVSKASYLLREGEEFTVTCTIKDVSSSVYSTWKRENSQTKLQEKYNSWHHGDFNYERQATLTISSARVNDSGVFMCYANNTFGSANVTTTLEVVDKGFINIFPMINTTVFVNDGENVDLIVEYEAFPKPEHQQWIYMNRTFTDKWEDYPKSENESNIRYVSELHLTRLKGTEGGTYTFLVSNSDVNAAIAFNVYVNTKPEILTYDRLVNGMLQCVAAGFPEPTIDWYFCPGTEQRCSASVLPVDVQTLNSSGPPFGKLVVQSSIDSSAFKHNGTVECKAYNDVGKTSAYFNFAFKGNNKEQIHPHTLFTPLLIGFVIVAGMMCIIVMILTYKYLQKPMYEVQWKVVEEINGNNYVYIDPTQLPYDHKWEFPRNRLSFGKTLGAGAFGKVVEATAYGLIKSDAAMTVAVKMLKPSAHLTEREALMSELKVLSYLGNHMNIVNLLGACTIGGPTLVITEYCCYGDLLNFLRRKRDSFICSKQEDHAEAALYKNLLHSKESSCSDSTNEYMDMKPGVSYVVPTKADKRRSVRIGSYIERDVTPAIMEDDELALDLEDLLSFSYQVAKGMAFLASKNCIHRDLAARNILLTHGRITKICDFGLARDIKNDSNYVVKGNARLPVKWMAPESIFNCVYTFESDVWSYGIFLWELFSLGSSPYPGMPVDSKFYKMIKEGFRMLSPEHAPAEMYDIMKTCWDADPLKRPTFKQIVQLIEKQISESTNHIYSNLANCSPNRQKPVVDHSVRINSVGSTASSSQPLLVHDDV
Sequence of Tyrosine-protein kinase ABL1 (Homo sapiens), P00519 [F317I] (P00519 whole entry F317I, the tested form may be a part): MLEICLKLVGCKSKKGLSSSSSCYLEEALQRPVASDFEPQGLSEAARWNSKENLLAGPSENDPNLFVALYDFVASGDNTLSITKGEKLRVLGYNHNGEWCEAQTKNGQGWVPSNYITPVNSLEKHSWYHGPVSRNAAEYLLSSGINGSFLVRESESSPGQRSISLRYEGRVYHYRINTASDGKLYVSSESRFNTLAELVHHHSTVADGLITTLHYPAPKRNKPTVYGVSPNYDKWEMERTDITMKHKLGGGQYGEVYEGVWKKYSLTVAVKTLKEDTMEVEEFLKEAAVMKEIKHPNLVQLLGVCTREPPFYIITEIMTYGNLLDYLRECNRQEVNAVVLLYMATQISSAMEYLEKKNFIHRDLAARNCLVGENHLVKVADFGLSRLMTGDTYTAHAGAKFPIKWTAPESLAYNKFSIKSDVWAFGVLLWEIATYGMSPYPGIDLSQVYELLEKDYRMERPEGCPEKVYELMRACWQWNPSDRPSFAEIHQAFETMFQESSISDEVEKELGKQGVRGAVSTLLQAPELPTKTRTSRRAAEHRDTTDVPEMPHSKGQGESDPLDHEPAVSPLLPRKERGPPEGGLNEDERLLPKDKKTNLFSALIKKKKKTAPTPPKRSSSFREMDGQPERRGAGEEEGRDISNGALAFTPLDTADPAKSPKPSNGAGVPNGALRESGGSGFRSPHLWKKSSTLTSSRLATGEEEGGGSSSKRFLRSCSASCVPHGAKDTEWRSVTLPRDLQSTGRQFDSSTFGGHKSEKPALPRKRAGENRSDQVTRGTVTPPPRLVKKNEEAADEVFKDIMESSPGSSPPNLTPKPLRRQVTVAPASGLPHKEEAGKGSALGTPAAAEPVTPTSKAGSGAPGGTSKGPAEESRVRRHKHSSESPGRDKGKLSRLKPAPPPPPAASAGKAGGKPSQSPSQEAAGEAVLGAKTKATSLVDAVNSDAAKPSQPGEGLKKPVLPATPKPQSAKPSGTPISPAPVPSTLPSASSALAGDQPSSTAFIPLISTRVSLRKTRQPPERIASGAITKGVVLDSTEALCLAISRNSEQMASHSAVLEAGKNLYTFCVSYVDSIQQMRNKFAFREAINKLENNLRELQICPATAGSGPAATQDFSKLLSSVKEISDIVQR
Sequence of MAP kinase-interacting serine/threonine-protein kinase 1 (Homo sapiens) (Q9BUB5 whole entry, looked up, the tested form may be a part): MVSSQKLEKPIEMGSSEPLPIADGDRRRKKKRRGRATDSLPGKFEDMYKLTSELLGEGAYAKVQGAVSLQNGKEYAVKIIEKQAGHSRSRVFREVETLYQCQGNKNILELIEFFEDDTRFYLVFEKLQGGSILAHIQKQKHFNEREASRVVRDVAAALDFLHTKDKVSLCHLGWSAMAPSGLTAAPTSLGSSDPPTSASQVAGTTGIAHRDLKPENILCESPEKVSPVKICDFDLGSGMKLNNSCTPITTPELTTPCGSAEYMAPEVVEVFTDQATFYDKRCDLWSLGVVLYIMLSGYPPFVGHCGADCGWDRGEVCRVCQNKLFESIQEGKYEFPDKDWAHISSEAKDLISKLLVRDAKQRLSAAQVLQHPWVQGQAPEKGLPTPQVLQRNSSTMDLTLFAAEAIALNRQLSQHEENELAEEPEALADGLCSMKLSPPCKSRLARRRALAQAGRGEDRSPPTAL
Sequence of Epithelial discoidin domain-containing receptor 1 (Homo sapiens) (Q08345 whole entry, the tested form may be a part): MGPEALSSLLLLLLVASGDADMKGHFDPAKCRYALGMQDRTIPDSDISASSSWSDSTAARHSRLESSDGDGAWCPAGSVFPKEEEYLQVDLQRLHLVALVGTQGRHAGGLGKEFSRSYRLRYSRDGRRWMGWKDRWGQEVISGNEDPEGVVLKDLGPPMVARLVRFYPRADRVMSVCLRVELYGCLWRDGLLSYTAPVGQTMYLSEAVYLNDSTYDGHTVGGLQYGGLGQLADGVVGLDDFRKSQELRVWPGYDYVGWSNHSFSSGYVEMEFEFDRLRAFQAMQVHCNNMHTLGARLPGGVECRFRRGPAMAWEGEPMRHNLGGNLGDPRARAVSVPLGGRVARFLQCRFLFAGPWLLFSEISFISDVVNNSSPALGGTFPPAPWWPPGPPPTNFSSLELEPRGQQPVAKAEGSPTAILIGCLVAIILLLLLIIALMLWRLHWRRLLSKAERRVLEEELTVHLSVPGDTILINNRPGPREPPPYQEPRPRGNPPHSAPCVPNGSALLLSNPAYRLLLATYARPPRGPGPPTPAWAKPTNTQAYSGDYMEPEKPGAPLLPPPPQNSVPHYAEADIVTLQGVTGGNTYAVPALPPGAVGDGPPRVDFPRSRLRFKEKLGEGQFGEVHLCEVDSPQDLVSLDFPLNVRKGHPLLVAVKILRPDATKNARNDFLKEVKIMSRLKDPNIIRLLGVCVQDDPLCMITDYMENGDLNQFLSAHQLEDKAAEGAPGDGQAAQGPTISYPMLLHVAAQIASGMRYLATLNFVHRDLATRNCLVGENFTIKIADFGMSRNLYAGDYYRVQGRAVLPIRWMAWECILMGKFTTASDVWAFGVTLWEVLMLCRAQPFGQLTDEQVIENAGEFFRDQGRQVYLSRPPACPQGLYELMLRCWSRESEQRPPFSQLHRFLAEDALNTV
Sequence of Cyclin-dependent kinase 15 (Homo sapiens) (Q96Q40 whole entry, the tested form may be a part): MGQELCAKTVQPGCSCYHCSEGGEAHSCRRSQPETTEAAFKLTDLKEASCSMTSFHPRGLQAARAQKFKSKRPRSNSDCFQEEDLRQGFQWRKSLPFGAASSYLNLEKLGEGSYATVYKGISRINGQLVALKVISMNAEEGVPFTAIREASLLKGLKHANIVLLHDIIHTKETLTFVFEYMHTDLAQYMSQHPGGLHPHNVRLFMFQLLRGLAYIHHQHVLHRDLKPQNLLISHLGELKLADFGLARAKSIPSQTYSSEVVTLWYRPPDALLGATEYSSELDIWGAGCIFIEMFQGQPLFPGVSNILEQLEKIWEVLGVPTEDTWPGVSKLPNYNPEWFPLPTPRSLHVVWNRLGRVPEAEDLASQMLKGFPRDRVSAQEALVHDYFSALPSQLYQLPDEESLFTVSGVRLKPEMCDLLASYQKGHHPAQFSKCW

CC(C)N1C(=O)C(NCCCN(C)C)=C(c2cn(C)c3ccccc23)C1=O.Cl
Activity [1]: 100% | Activity [2]: 99% | Activity [3]: 98% | Activity [4]: 91% | Activity [5]: 93% | Activity [6]: 88% | Activity [7]: 100% | Activity [8]: 99% | Activity [9]: 100% | Activity [10]: 82% | Activity [11]: 92% | Activity [12]: 88% | Activity [13]: 84% | Activity [14]: 100% | Activity [15]: 99% | Activity [16]: 100% | Activity [17]: 100% | Activity [18]: 69% | Activity [19]: 93% | Activity [20]: 88% | Activity [21]: 100% | Activity [22]: 94% | Activity [23]: 98% | Activity [24]: 99%
